Data taken from ChEMBL document CHEMBL1145598, “Discovery and preclinical studies of 5-isopropyl-6-(5-methyl-1,3,4-oxadiazol-2-yl)-N-(2-methyl-1H-pyrrolo[2,3-b]pyridin-5-yl)pyrrolo[2,1-f][1,2,4]triazin-4-amine (BMS-645737), an in vivo active potent VEGFR-2 inhibitor” (Bioorg Med Chem Lett, 2008).
Converted amounts (≈) assume the structure as drawn. Values belong to the compound of their own block, whether it stands above or below them.

Assays:
[1] = Oral bioavailability in BALB/c mouse at 30 mg/kg; details: in vivo
[2] = Mean resident time in BALB/c mouse at 5 mg/kg, iv; type: ADME, organism-based; set-up: dose 5 mg/kg, route intravenous; details: in vivo
Cytochrome P450 3A4 = Cytochrome P450 3A4 (Homo sapiens, UniProt P08684); experiment: Inhibition of CYP3A4; type: ADME
Sequence of Cytochrome P450 3A4 (P08684 whole entry): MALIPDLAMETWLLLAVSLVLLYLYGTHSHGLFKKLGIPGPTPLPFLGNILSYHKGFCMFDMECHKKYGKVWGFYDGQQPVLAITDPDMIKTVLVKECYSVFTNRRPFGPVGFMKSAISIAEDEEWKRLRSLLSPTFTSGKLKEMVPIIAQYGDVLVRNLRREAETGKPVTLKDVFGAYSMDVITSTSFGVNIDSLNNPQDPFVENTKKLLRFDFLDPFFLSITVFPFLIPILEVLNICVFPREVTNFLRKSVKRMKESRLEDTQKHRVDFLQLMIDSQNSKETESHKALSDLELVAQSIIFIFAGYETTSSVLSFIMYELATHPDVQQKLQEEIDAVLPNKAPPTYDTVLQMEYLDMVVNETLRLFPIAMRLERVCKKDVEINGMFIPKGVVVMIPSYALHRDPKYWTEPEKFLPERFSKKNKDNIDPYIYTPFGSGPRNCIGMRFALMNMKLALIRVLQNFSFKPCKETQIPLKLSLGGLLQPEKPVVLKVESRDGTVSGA

[3] = Half life in BALB/c mouse at 5 mg/kg, iv; type: ADME, organism-based; set-up: dose 5 mg/kg, route intravenous; details: in vivo
[4] = Half life in BALB/c mouse at 30 mg/kg, po; type: ADME, organism-based; set-up: dose 30 mg/kg, route oral; details: in vivo
[5] = Volume of distribution at steady state in BALB/c mouse at 5 mg/kg, iv; type: ADME, organism-based; set-up: dose 5 mg/kg, route intravenous; details: in vivo, read-out: Vdss
[6] = Clearance in BALB/c mouse at 5 mg/kg, iv; type: ADME, organism-based; set-up: dose 5 mg/kg, route intravenous; details: in vivo
[7] = Total AUC in BALB/c mouse at 30 mg/kg, po; type: ADME, organism-based; set-up: time AUCmax, dose 30 mg/kg, route oral; details: in vivo
[8] = Total AUC in BALB/c mouse at 5 mg/kg, iv; type: ADME, organism-based; set-up: time AUCmax, dose 5 mg/kg, route intravenous; details: in vivo
[9] = biological target: Epidermal growth factor receptor (Homo sapiens, UniProt P00533); experiment: Inhibition of EGFR
[10] = biological target: T1, Tyrosine-protein kinase JAK3 (Homo sapiens, UniProt P52333); experiment: Inhibition of JAK3
T1 sequence (P52333 whole entry): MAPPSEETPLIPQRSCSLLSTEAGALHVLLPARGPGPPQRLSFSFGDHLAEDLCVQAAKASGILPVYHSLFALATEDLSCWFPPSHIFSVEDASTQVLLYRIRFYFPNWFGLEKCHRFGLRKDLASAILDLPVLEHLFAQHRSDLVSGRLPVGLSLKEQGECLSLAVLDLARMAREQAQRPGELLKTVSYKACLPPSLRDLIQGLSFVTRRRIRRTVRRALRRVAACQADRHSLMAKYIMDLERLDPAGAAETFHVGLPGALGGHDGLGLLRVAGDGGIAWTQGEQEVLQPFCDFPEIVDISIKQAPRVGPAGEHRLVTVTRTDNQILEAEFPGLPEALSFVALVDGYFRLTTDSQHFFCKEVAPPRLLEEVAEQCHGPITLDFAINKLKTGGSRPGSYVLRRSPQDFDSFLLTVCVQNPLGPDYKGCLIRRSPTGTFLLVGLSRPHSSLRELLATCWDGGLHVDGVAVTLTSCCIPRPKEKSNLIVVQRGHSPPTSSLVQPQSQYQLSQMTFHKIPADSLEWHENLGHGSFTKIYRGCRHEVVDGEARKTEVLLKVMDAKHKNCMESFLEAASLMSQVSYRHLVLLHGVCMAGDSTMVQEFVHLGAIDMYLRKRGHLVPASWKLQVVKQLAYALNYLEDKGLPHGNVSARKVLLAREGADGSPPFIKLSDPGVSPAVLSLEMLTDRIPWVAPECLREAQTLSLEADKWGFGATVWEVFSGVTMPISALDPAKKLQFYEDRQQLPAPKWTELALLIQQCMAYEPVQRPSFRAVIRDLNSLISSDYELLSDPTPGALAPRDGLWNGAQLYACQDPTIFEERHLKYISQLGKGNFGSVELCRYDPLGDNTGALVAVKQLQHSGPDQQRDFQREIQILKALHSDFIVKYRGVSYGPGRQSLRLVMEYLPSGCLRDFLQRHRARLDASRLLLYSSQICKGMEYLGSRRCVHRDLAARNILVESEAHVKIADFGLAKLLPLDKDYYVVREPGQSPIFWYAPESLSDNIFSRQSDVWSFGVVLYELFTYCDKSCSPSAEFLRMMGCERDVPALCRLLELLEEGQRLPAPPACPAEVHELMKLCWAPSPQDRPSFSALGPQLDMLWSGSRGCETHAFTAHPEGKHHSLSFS

[11] = biological target: Fibroblast growth factor receptor 1 (Homo sapiens, UniProt P11362); experiment: Inhibition of FGFR1
[12] = biological target: Vascular endothelial growth factor receptor 2 (Homo sapiens, UniProt P35968)
Sequence of Vascular endothelial growth factor receptor 2 (Homo sapiens, UniProt P35968) (P35968 whole entry): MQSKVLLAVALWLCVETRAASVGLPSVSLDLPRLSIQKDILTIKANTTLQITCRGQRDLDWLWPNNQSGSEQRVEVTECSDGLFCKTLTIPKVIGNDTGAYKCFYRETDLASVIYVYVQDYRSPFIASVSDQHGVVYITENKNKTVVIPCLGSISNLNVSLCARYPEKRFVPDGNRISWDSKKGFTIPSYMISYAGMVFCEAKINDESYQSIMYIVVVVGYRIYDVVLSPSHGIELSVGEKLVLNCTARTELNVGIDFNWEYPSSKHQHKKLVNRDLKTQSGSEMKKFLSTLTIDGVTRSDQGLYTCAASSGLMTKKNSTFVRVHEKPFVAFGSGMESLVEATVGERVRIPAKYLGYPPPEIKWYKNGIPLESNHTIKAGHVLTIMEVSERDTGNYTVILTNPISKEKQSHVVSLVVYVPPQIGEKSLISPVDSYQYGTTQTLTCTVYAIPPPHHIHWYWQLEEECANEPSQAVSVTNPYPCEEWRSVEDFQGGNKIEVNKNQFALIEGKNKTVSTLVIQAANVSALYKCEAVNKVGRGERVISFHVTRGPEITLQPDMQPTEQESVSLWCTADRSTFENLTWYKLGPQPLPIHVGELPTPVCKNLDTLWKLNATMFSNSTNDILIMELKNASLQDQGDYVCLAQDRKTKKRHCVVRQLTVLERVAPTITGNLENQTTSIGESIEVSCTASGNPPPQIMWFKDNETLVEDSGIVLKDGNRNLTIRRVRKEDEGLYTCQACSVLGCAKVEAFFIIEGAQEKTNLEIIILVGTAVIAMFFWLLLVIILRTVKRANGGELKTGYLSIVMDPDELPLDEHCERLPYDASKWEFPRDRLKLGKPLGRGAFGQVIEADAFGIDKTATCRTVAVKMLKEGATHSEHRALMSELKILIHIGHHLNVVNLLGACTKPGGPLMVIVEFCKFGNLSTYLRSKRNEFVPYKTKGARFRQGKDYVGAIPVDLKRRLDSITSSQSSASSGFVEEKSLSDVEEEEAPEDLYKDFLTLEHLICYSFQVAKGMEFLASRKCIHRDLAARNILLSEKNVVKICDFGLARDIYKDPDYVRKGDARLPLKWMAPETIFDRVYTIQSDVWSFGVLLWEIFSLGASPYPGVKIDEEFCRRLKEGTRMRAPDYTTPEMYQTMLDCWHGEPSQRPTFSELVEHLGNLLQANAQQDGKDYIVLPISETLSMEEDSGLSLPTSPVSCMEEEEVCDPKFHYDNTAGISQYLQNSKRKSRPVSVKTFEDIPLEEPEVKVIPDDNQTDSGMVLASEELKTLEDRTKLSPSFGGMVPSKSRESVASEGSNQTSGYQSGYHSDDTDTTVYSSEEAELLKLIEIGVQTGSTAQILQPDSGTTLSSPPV
Description: Inhibition of human VEGFR2

[13] = biological target: Receptor tyrosine-protein kinase erbB-2 (Homo sapiens, UniProt P04626); experiment: Inhibition of HER2
Sequence of Receptor tyrosine-protein kinase erbB-2 (P04626 whole entry): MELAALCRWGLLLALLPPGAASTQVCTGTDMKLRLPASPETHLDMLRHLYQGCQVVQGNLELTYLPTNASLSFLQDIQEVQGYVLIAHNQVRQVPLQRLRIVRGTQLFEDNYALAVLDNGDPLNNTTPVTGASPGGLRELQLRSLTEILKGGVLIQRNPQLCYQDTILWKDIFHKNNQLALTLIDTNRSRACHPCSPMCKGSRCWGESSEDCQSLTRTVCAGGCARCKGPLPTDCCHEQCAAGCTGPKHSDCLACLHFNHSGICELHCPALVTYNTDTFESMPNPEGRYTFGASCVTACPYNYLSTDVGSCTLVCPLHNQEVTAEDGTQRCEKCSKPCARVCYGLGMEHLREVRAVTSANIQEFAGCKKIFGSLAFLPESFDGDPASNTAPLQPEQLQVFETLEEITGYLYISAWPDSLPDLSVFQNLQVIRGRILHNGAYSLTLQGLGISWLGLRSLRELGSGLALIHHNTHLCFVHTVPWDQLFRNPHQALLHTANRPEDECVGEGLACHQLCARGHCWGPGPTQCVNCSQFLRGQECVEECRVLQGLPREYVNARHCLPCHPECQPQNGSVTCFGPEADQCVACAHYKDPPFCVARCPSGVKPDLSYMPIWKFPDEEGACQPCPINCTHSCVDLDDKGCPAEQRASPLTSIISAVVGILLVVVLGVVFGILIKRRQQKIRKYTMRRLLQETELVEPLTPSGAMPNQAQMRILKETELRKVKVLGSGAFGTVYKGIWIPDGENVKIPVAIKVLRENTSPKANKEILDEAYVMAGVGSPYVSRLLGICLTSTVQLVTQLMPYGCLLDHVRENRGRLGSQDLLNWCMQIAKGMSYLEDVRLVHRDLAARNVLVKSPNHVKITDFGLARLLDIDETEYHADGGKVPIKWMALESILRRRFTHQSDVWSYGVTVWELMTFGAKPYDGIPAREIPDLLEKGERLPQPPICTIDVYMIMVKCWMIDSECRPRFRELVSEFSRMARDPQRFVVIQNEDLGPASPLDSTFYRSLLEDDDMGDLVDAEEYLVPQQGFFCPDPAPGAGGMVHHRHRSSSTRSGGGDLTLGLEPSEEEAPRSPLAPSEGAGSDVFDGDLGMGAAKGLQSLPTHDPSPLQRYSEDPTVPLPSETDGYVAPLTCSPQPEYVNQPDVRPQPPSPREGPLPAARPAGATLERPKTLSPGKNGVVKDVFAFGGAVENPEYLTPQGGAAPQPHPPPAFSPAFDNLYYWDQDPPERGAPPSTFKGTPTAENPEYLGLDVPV

[14] = biological target: Platelet-derived growth factor receptor beta (Homo sapiens, UniProt P09619); experiment: Inhibition of PDGFRbeta
Sequence of Platelet-derived growth factor receptor beta (P09619 whole entry): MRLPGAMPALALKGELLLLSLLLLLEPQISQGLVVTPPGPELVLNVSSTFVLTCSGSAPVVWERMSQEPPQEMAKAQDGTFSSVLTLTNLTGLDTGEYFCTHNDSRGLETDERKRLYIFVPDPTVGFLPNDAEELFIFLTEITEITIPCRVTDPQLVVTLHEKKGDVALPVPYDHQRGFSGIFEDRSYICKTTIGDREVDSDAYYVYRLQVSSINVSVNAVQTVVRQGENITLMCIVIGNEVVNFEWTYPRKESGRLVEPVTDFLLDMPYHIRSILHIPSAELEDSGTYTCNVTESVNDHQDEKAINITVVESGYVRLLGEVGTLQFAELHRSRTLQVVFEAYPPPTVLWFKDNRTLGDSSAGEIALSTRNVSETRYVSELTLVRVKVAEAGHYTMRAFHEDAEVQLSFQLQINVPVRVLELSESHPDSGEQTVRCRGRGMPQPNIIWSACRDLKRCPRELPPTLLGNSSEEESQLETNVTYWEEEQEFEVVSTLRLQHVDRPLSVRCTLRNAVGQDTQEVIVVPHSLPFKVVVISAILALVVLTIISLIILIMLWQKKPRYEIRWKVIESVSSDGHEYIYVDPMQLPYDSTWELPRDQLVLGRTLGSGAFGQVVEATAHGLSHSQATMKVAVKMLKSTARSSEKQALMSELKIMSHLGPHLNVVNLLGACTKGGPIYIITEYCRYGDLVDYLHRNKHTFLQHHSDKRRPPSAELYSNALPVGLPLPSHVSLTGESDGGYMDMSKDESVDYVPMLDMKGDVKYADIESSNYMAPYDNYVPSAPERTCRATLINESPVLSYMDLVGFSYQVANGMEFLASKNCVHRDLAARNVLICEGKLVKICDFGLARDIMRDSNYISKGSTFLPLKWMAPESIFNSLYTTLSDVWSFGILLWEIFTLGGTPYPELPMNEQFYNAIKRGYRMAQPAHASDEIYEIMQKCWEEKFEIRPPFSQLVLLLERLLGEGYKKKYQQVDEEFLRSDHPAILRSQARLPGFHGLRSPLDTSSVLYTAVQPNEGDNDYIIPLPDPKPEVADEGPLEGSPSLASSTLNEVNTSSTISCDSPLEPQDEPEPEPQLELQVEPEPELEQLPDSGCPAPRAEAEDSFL

[15] = biological target: Protein kinase C alpha type (Homo sapiens, UniProt P17252); experiment: Inhibition of PKCalpha
hERG (KCNH2) = hERG (KCNH2) (Homo sapiens, UniProt Q12809); experiment: Inhibition of human ERG at 10 uM by patch clamp method
[16] = biological target: Tyrosine-protein kinase Lck (Homo sapiens, UniProt P06239); experiment: Inhibition of LCK
Mus musculus [17] = experiment: Toxicity in human L2987 cells xenografted mouse assessed as weight loss at 15 mg/kg, po; type: organism-based; set-up: dose 15 mg/kg, route oral; details: in vivo
[18] = Oral bioavailability in rat at 30 mg/kg; type: ADME, organism-based; details: in vivo
[19] = Tmax in BALB/c mouse at 30 mg/kg, po; details: in vivo
NCI-N87 = experiment: Antitumor activity against human N87 cells; type: functional, cell-based
[20] = biological target: Voltage-gated inwardly rectifying potassium channel KCNH2 (Homo sapiens, UniProt Q12809); experiment: Inhibition of human ERG by patch clamp method
[21] = Cmax in human L2987 cells xenografted mouse at 7.5 mg/kg, po after 24 hrs; type: ADME, organism-based; set-up: dose 7.5 mg/kg, route oral; details: in vivo
[22] = Antitumor activity against human H1993 cells; type: functional, cell-based; details: NCI-H1993
[23] = Aqueous solubility at pH 2; type: physicochemical; details: buffer
[24] = Cmax in human L2987 cells xenografted mouse at 15 mg/kg, po after 24 hrs; type: ADME, organism-based; set-up: dose 15 mg/kg, route oral; details: in vivo
L2987 [25] = experiment: Antitumor activity against human L2987 cells xenografted mouse at 15 mg/kg, po after 4 days; type: functional
[26] = Antitumor activity against human GTL16 cells; type: functional, cell-based; details: GTL 16
L2987 [27] = experiment: Antitumor activity against human L2987 cells xenografted mouse at 7.5 mg/kg, po after 4 days; type: functional
HUVEC [28] = experiment: Antiproliferative activity against VEGF-induced HUVEC; type: functional, cell-based; details: Homo sapiens
[29] = biological target: Vascular endothelial growth factor receptor 1 (Homo sapiens, UniProt P17948); experiment: Inhibition of VEGFR1
L2987 [30] = experiment: Antitumor activity against po dosed human L2987 cells xenografted mouse after 24 hrs; type: functional
L2987 [31] = experiment: Antitumor activity against human L2987 cells xenografted in mouse; type: functional, cell-based
Mus musculus [32] = experiment: Toxicity in human L2987 cells xenografted mouse assessed as weight loss at 7.5 mg/kg, po; type: organism-based; set-up: dose 7.5 mg/kg, route oral; details: in vivo
[33] = biological target: Vascular endothelial growth factor receptor 2 (Mus musculus, UniProt P35918); experiment: Inhibition of mouse Flk1
HUVEC [34] = experiment: Antiproliferative activity against bFGF-induced HUVEC; type: functional, cell-based; details: Homo sapiens
Mus musculus [35] = experiment: Toxicity in human L2987 cells xenografted mouse assessed as morbidity at 7.5 mg/kg, po; type: organism-based; set-up: dose 7.5 mg/kg, route oral; details: in vivo
Mus musculus [36] = experiment: Toxicity in human L2987 cells xenografted mouse assessed as morbidity at 15 mg/kg, po; type: organism-based; set-up: dose 15 mg/kg, route oral; details: in vivo
[37] = Aqueous solubility at pH 6.5; type: physicochemical; details: buffer
[38] = AUC in human L2987 cells xenografted mouse at 7.5 mg/kg, po after 24 hrs; type: ADME, organism-based; set-up: time < 24 hr, dose 7.5 mg/kg, route oral; details: in vivo
Rattus norvegicus = experiment: AUC in rat at 30 mg/kg; type: ADME, organism-based, Plasma; set-up: dose 30 mg/kg; details: in vivo
[39] = AUC in human L2987 cells xenografted mouse at 15 mg/kg, po after 24 hrs; type: ADME, organism-based; set-up: time < 24 hr, dose 15 mg/kg, route oral; details: in vivo
[40] = AUC in mouse at 50 mg/kg, po after 4 hrs; type: ADME, organism-based; set-up: time < 4 hr, dose 50 mg/kg, route oral; details: plasma

Structure (SMILES): CNc1nnc(-c2cn3ncnc(Nc4cnc5[nH]c(C)cc5c4)c3c2C(C)C)o1
- bioavailability [1]: 99%
- MRT [2]: 4.3 h
- IC50 (Cytochrome P450 3A4): 6400 nM
- half-life [3]: 2.8 h
- half-life [4]: 2.8 h
- Vd [5]: 1.2 L/kg
- clearance [6]: 4.5 mL/min/kg
- AUC [7]: 272 µM·h
- AUC [8]: 46 µM·h

Structure (SMILES): Cc1nnc(-c2cn3ncnc(Nc4cnc5[nH]ccc5c4)c3c2C(C)C)o1
- IC50 [9]: 150 nM
- bioavailability [1]: 29%
- IC50 [10]: > 50000 nM
- MRT [2]: 1.7 h
- IC50 (Cytochrome P450 3A4): > 40000 nM
- half-life [3]: 1.2 h
- half-life [4]: 4.5 h
- IC50 [11]: 61 nM
- Vd [5]: 1.9 L/kg
- IC50 [12]: 31 nM
- IC50 [13]: 500 nM
- IC50 [14]: 389 nM
- IC50 [15]: > 50000 nM
- clearance [6]: 18 mL/min/kg
- AUC [7]: 21.7 µM·h
- inhibition at 10 µM (hERG (KCNH2)): 29%
- IC50 [16]: 185 nM
- AUC [8]: 12.4 µM·h

Structure (SMILES): Cc1cc2cc(Nc3ncnn4cc(-c5nnc(C)o5)c(C(C)C)c34)cnc2[nH]1
- Activity (Mus musculus [17]): Non-toxic
- bioavailability [18]: 68%
- IC50 [9]: > 1000 nM
- Tmax [19]: 0.5 h
- bioavailability [1]: > 100%
- IC50 [10]: > 50000 nM
- IC50 (NCI-N87): > 10000 nM
- IC50 [20]: 6600 nM
- MRT [2]: 2.7 h
- Cmax [21]: 1030 nM
- IC50 [22]: > 10000 nM
- IC50 (Cytochrome P450 3A4): 11500 nM
- solubility [23]: 400 µg/mL (≈ 1030 µM)
- Cmax [24]: 2640 nM
- Activity (L2987 [25]): >=50%
- half-life [3]: 2.9 h
- half-life [4]: 2.5 h
- IC50 [26]: > 10000 nM
- IC50 [11]: 78 nM
- Vd [5]: 1.4 L/kg
- Activity (L2987 [27]): >=50%
- IC50 (HUVEC [28]): 13 nM
- IC50 [12]: 25 nM
- IC50 [13]: > 5000 nM
- IC50 [14]: > 2000 nM
- IC50 [29]: 268 nM
- IC50 [15]: > 50000 nM
- Activity (L2987 [30]): Dose-dependent effect
- minimal effective dose (L2987 [30]; read-out: MED): 7.5 mg/kg
- IC50 (L2987 [31]): > 2500 nM
- Activity (Mus musculus [32]): Non-toxic
- IC50 [33]: 53 nM
- IC50 (HUVEC [34]): 138 nM
- clearance [6]: 8.5 mL/min/kg
- Activity (Mus musculus [35]): Non-toxic
- Activity (Mus musculus [36]): Non-toxic
- AUC [7]: 182 µM·h
- solubility [37]: 2.8 µg/mL (≈ 7.21 µM)
- AUC at 24 h [38]: 11 µM·h
- inhibition at 10 µM (hERG (KCNH2)): 64%
- AUC (Rattus norvegicus): 287 µM·h
- IC50 [16]: > 2000 nM
- AUC at 24 h [39]: 30 µM·h
- AUC [8]: 25 µM·h

Structure (SMILES): Cc1c(OC[C@@H](C)O)cn2ncnc(Oc3cnc4[nH]ccc4c3F)c12
- AUC at 4 h [40]: 11.1 µM·h

Results, then the compound that gave them:

- AUC at 4 h [40]: 136 µM·h
Structure (SMILES): Cc1cc2c(F)c(Oc3ncnn4cc(OC[C@@H](C)O)c(C)c34)ccc2[nH]1 [BRIVANIB]

- AUC at 4 h [40]: 29.6 µM·h
Structure (SMILES): Cc1cc2c(F)c(Oc3ncnn4cc(OC[C@@H](C)O)c(C)c34)cnc2[nH]1
